In data set [1] the test system is MKN-45 (human gastric cancer) cell line. The experiment in a line: Cell proliferation assay (MTT), MKN-45. As to conditions: 48 h exposure, n = 3 (mean ± SD), read-out: Proliferative inhibition IC50, MKN-45. The format is cell-based. As for the experimental part: (§1) The anti-proliferative activities of the prepared compounds (12a-12s) were evaluated against A549, MCF-7 and MKN-45 cell lines by MTT assay in vitro. Briefly, tumour cells were cultured to log phase in RPMI 1640 medium supplemented with 10% foetal bovine serum (FBS). After diluting to 2 × 10^4 cells mL^−1 with the complete medium, 100 µL of the obtained cell suspension was added to each well of 96-well culture plates. Subsequently, incubation was performed at 37 °C in 5% CO2 for 24 h before the anti-proliferative assessment. Tested samples at pre-set concentrations were added to 6 wells with cabozantinib as a positive reference. After 48 h exposure period, 40 µL of PBS containing 2.5 mg mL^−1 of MTT was added to each well. Four hours later, 100 µL extraction solution (10% SDS-5% isobutyl alcohol-0.010M HCl) was added. After an overnight incubation at 37°C, the absorbance was measured at a wavelength of 570 nm with an ELISA microplate reader. All compounds were tested three times in each tumour cell lines. The IC50 values were the averages of three determinations and calculated by concentration-response curve fitting method.
(§2) All the synthesised compounds […] were evaluated for their antiproliferation activities against A549 (human lung cancer), MCF-7 (human breast cancer) and MKN-45 (human gastric cancer) cell lines by MTT assay, using cabozantinib as the positive control.

For data set [2], the system named is MCF-7 (human breast cancer) cell line. The experiment in a line: Cell proliferation assay (MTT), MCF-7. The format is cell-based. As to conditions: MCF7, 48 h exposure, n = 3 (mean ± SD), read-out: Proliferative inhibition IC50, MCF-7. As for the experimental part:
as §1, §2

The target in another data set is T1, c-Met kinase (Homo sapiens, UniProt P08581).
T1 construct: purchased Carna
Nature of the data set: c-Met inhibition assay (Caliper motility shift assay). The format is biochemical. As to conditions: for c-Met inhibition % Inhibition (10 μΜ): 10 μΜ compound; for c-Met inhibition % Inhibition (10 μΜ) / IC50: n = 3 (mean ± SD); for c-Met inhibitory activity in words: SAR statement, ortho-substituted compounds. The method, then: A Caliper motility shift assay was applied to test the potency of synthesised compounds against c-Met kinase. Briefly, the compounds were dissolved in DMSO (Sigma) at 0.5 mM concentration, and then were diluted 50× to the final desired highest inhibitor concentration (10 μM) in reaction by DMSO. For all compounds, 100 μL of the diluted compound solution in tubes was transferred to a well on a 96-well plate (Corning) and was serially diluted 10× by transferring 10 μL dilution to 90 μL DMSO in the next well. 100 μL DMSO was added to two empty wells in the same 96-well plate for no compound control and no enzyme control. The plate was marked as source plate. 10 μL of compound solution from source plate was transferred to a new 96-well plate as the intermediate plate. […] After that, 5 μL solution from each well of the intermediate plate was transferred to a 384-well plate (Corning) as the assay plate in duplicates.c-Met kinase (Carna) was added in 1× kinase base buffer to prepare 2.5× enzyme solution, and FAM-labled peptide (GL Biochem) and ATP (Sigma) were added in 1× kinase base buffer to prepare 2.5× peptide solution. 10 μL of 2.5× enzyme solution was added to each well of the 384-well assay plate that already contained 5 μL of compound in 10% DMSO, and then incubated at room temperature for 10 min. […] The data were collected on Caliper and the conversion data were copied from Caliper program.
IC50 values were calculated from three independent experiments by fitting the data in XLfit with the following equation: Y = Bottom + (Top-Bottom)/(1 + (IC50/X)^HillSlope).

The test system of data set [3] is A549 (human lung cancer) cell line. The experiment in a line: Cell proliferation assay (MTT), A549. The format is cell-based. As to conditions: 48 h exposure, n = 3 (mean ± SD), read-out: Proliferative inhibition IC50, A549. As for the experimental part: as §1, §2

The structures appear in SMILES notation.

T1 sequence (P08581 25-1390): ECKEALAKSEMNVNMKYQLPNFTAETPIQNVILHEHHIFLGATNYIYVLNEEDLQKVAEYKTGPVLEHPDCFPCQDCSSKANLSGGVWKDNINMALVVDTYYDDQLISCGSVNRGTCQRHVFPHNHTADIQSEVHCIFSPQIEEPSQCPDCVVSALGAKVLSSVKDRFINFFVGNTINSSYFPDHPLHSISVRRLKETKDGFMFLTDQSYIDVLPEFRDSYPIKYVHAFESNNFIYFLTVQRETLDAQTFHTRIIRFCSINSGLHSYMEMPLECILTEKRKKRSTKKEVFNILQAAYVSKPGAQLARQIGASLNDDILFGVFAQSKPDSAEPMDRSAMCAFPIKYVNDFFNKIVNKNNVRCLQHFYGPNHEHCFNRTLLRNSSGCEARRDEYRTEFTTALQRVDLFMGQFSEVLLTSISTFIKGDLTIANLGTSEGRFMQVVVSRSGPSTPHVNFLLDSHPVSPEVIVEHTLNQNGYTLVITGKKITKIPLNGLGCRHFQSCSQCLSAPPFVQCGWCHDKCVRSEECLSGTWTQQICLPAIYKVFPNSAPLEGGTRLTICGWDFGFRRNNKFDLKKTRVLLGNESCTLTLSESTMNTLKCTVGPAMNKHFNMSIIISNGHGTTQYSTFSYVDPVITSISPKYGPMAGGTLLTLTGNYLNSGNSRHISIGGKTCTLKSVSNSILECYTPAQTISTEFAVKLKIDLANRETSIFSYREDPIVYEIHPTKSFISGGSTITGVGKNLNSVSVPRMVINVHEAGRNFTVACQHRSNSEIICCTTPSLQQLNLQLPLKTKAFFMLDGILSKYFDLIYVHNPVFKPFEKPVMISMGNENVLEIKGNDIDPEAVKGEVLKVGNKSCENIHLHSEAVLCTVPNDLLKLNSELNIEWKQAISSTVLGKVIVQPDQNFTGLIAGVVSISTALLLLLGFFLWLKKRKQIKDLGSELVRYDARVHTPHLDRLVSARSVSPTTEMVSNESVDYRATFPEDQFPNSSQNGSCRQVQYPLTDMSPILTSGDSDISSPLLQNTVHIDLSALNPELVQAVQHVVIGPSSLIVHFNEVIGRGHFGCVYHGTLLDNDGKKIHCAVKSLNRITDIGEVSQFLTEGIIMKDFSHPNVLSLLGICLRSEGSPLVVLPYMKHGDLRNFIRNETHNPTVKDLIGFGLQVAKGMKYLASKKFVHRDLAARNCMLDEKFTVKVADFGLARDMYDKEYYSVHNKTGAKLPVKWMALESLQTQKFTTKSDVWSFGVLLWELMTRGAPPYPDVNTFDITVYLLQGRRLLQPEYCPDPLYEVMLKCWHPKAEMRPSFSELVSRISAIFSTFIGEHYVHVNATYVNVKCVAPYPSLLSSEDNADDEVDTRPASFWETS

On to `COc1cc2nccc(Nc3ccc4nc(-c5cccc(I)c5)[nH]c4c3)c2cc1OC` [Compound 12i, N-(2–(3-iodophenyl)-1H-benzo[d]imidazol-6-yl)-6,7-dimethoxyquinolin-4-amine], for which the melting point – broadly, the temperature, or range, at which the solid turns liquid – was in the range of 201 to 203 °C. Also, the IC50 (commonly the concentration at which inhibition is half-maximal) in data set [1] amounted to 36.1 ± 2.7 µM. Further, the IC50 in data set [2] turned out to be 30.5 ± 1.6 µM. Moreover, at c-Met kinase, the “c-Met inhibition % Inhibition (10 μΜ)” value amounted to 66.0 ± 0.8% and the IC50 amounted to 0.54 ± 0.13 µM. In addition, the IC50 in data set [3] came to 23.8 ± 2 µM.
Regarding `COc1cc2nccc(Nc3ccc4nc(-c5ccccc5C)[nH]c4c3)c2cc1OC` [Compound 12j, 6,7-Dimethoxy-N-(2-(o-tolyl)-1H-benzo[d]imidazol-6-yl)quinolin-4-amine], the melting point was 174 to 175 °C. Moreover, the IC50 in data set [1] is > 100 µM. For the same compound, the IC50 in data set [2] is > 100 µM. Also, on c-Met kinase, the “c-Met inhibition % Inhibition (10 μΜ)” value was 23.0 ± 0.4%. For the same compound, in data set [3], the IC50 was > 100 µM.
Turning to `COc1cc2nccc(Nc3ccc4nc(-c5ccccc5OC)[nH]c4c3)c2cc1OC` [Compound 12o, 6,7-Dimethoxy-N-(2–(2-methoxyphenyl)-1H-benzo[d]imidazol-6-yl)quinolin-4-amine], the melting point fell in the range of 164 to 166 °C. The IC50 in data set [1] is > 100 µM. Besides, the IC50 in data set [2] was > 100 µM. In addition, the “c-Met inhibition % Inhibition (10 μΜ)” value on c-Met kinase was 24.2 ± 0.1%. Also, the IC50 in data set [3] is > 100 µM.
`COc1cc2nccc(Nc3ccc4nc(-c5cc(F)ccc5Br)[nH]c4c3)c2cc1OC` [Compound 12s, N-(2–(2-bromo-5-fluorophenyl)-1H-benzo[d]imidazol-6-yl)-6,7-dimethoxyquinolin-4-amine]: the melting point was in the range of 284 to 286 °C. Also, the IC50 in data set [1] was > 100 µM. For the same compound, the IC50 in data set [2] amounted to 92.7 ± 5.3 µM. At c-Met kinase, the “c-Met inhibition % Inhibition (10 μΜ)” value is recorded as 23.0 ± 1.1% and the “c-Met inhibitory activity in words” value is listed as “loss of activity”. The IC50 in data set [3] is > 100 µM.
In turn, `COc1cc2nccc(Nc3ccc4nc(-c5c(F)cccc5F)[nH]c4c3)c2cc1OC` [Compound 12p, N-(2–(2,6-difluorophenyl)-1H-benzo[d]imidazol-6-yl)-6,7-dimethoxyquinolin-4-amine] displayed a melting point of 208 to 210 °C. The 50% inhibitory concentration (IC50) in data set [1] was > 100 µM. The IC50 in data set [2] was > 100 µM. For the same compound, on c-Met kinase, the “c-Met inhibition % Inhibition (10 μΜ)” value was 25.9 ± 1.5% and the “c-Met inhibitory activity in words” value is given as “loss of activity”. Also, in data set [3], the IC50 is > 100 µM.
In turn, `COc1cc2nccc(Nc3ccc4nc(-c5ccc(F)cc5)[nH]c4c3)c2cc1OC` [Compound 12c, N-(2–(4-fluorophenyl)-1H-benzo[d]imidazol-6-yl)-6,7-dimethoxyquinolin-4-amine] showed a melting point of 312 to 315 °C. For the same compound, the IC50 in data set [1] came out at 21 ± 1.8 µM. Also, in data set [2], the IC50 came to 11.3 ± 1.6 µM. At c-Met kinase, the “c-Met inhibition % Inhibition (10 μΜ)” value stood at 89.2 ± 0.3% and the IC50 was 0.11 ± 0.02 µM. Besides, the “fold more potent c-Met activity than compound 12b” value on c-Met kinase (ratio of c-Met IC50 values, versus 12b) is listed as 11 fold. In addition, the IC50 in data set [3] was determined as 15.6 ± 2.5 µM.
In the case of `CCc1ccc(-c2nc3ccc(Nc4ccnc5cc(OC)c(OC)cc45)cc3[nH]2)cc1` [Compound 12m, N-(2–(4-ethylphenyl)-1H-benzo[d]imidazol-6-yl)-6,7-dimethoxyquinolin-4-amine], the melting point fell in the range of 210 to 212 °C. Moreover, the IC50 in data set [1] came to 14.9 ± 0.7 µM. For the same compound, the IC50 in data set [2] worked out at 18.4 ± 2.1 µM. On c-Met kinase, the “c-Met inhibition % Inhibition (10 μΜ)” value is given as 95.0 ± 0.3% and the IC50 was 0.056 ± 0.012 µM. Further, the IC50 in data set [3] is 12.5 ± 1.3 µM.
As to `COc1cc2nccc(Oc3ccc(NC(=O)C4(C(=O)Nc5ccc(F)cc5)CC4)cc3)c2cc1OC` [cabozantinib, reference compound], the IC50 was found to be 11.8 ± 1.4 µM in data set [1], 7.2 ± 0.5 µM in data set [2] and 4.5 ± 0.8 µM in data set [3].
`COc1cc2nccc(Nc3ccc4nc(-c5ccccc5I)[nH]c4c3)c2cc1OC` [Compound 12h, N-(2–(2-iodophenyl)-1H-benzo[d]imidazol-6-yl)-6,7-dimethoxyquinolin-4-amine] returned a melting point of 207 to 209 °C. Further, the IC50 in data set [1] was > 100 µM. For the same compound, the IC50 in data set [2] was > 100 µM. In addition, the “c-Met inhibition % Inhibition (10 μΜ)” value at c-Met kinase amounted to 21.6 ± 2.5%. Moreover, in data set [3], the IC50 is 92.4 ± 5.1 µM.
`COc1cc2nccc(Nc3ccc4nc(-c5ccc(Br)cc5)[nH]c4c3)c2cc1OC` [Compound 12g, N-(2–(4-bromophenyl)-1H-benzo[d]imidazol-6-yl)-6,7-dimethoxyquinolin-4-amine] yielded a melting point of 280 to 282 °C. Moreover, the IC50 in data set [1] amounted to 55 ± 3.4 µM. In data set [2], the half-maximal inhibitory concentration (IC50) was determined as 46.3 ± 3.7 µM. On c-Met kinase, the “c-Met inhibition % Inhibition (10 μΜ)” value is listed as 54.2 ± 0.1% and the IC50 worked out at 5.5 ± 0.9 µM. The “fold lower c-Met activity than compound 12c” value at c-Met kinase (ratio of c-Met IC50 values, versus 12c) was “about 50 fold”. In addition, the IC50 in data set [3] came out at 38.5 ± 2.4 µM.
Turning to `COc1cc2nccc(Nc3ccc4nc(-c5cccc(F)c5)[nH]c4c3)c2cc1OC` [Compound 12b, N-(2–(3-fluorophenyl)-1H-benzo[d]imidazol-6-yl)-6,7-dimethoxyquinolin-4-amine], the melting point is 286 to 288 °C. Besides, the IC50 in data set [1] turned out to be 57.5 ± 1.9 µM. Besides, the IC50 in data set [2] amounted to 48.6 ± 5.2 µM. Moreover, at c-Met kinase, the “c-Met inhibition % Inhibition (10 μΜ)” value is given as 62.8 ± 1.2% and the IC50 turned out to be 1.2 ± 0.4 µM. In addition, the IC50 in data set [3] was found to be 45 ± 3.3 µM.
Turning to `COc1cc2nccc(Nc3ccc4nc(-c5ccc(C(C)(C)C)cc5)[nH]c4c3)c2cc1OC` [Compound 12n, N-(2–(4-(tert-butyl)phenyl)-1H-benzo[d]imidazol-6-yl)-6,7-dimethoxyquinolin-4-amine], the melting point lay in the range of 257 to 259 °C. The IC50 in data set [1] amounted to 13.4 ± 0.5 µM. For the same compound, the IC50 in data set [2] came out at 6.1 ± 0.6 µM. In addition, on c-Met kinase, the “c-Met inhibition % Inhibition (10 μΜ)” value came to 97.1 ± 3.5% and the 50% inhibitory concentration (IC50) worked out at 0.03 ± 0.008 µM. Moreover, the IC50 in data set [3] was determined as 7.3 ± 1 µM.
Take `COc1cc2nccc(Nc3ccc4nc(-c5cccc(C)c5)[nH]c4c3)c2cc1OC` [Compound 12k, 6,7-Dimethoxy-N-(2-(m-tolyl)-1H-benzo[d]imidazol-6-yl)quinolin-4-amine]: the melting point was in the range of 339 to 342 °C. In data set [1], the IC50 worked out at 87.2 ± 6.7 µM. For the same compound, in data set [2], the IC50 was 78.3 ± 3.5 µM. Further, at c-Met kinase, the “c-Met inhibition % Inhibition (10 μΜ)” value came to 52.7 ± 1.6% and the IC50 came out at 8.5 ± 2 µM. Also, the IC50 in data set [3] turned out to be 72.6 ± 6.5 µM.
Consider `COc1cc2nccc(Nc3ccc4nc(-c5cccc(Cl)c5)[nH]c4c3)c2cc1OC` [Compound 12e, N-(2–(3-chlorophenyl)-1H-benzo[d]imidazol-6-yl)-6,7-dimethoxyquinolin-4-amine], for which the melting point is 250 to 252 °C. For the same compound, in data set [1], the IC50 is 85.7 ± 3.7 µM. In addition, the IC50 in data set [2] came to 63.5 ± 4.8 µM. Besides, at c-Met kinase, the “c-Met inhibition % Inhibition (10 μΜ)” value stood at 54.5 ± 6.9% and the IC50 was found to be 4.8 ± 0.5 µM. Further, the IC50 in data set [3] was found to be 53.8 ± 5 µM.
In turn, `COc1cc2nccc(Nc3ccc4nc(-c5ccc(Cl)c(Cl)c5)[nH]c4c3)c2cc1OC` [Compound 12r, N-(2–(3,4-dichlorophenyl)-1H-benzo[d]imidazol-6-yl)-6,7-dimethoxyquinolin-4-amine] gave a melting point of 336 to 338 °C. For the same compound, in data set [1], the IC50 was > 100 µM. For the same compound, in data set [2], the IC50 stood at 79.2 ± 1.7 µM. On c-Met kinase, the “c-Met inhibition % Inhibition (10 μΜ)” value is recorded as 55.4 ± 2.9% and the half-maximal inhibitory concentration (IC50) is 5.3 ± 1.6 µM. The IC50 in data set [3] worked out at 83.6 ± 4 µM.
